Data on one substance can be found in patent publication US20020120102A1, “Use of dendroaspin as a scaffold for non-dendroaspin domains” (priority 2000, published 2002).

Ends that are not written are not given here.

The test concerns washed platelets. Kind of test: ADP-induced platelet aggregation (light transmission). The test is classed as cell-based. To be noted: 10 μM ADP, 1.67 mg/ml fibrinogen, washed human platelets. As to the method: Measurement of platelet aggregation—Platelet aggregation was measured by the increase in light transmission as described previously (Lu et al. (1993), supra; Lu et al. (1994) Biochem. J. 304, 929-936). Briefly, platelet rich plasma (PRP) was prepared from citrated human blood, obtained from healthy individuals, by centrifugation at 200×g for 15 min. Washed platelets were prepared from PRP and resuspended in adhesion/aggregation buffer (145 mM NaCl, 5 mM KCl, 1 mM MgCl2, 2 mM CaCl2, 10 mM glucose, 3.5 mg/ml BSA and 10 mM HEPES, pH 7.35) and adjusted to a count of 3×10^8/ml. Platelet aggregation (320 μl incubations) was induced with 10 μM ADP in the presence of 1.67 mg/ml fibrinogen and measured using a Payton Dual-Aggregometer linked to a chart recorder.

Turning to “KGD-dendroaspin: dendroaspin scaffold in which the native RGD motif is replaced by KGD; recombinant, expressed in E. coli (RICYNHLGTKPPTTETCQEDSCYKNIWTFDNIIRRGCGCFTPKGDMPGPYCCESDKCNL; ends and bridges not checked; cysteine pairing not given here)”, the “inhibition of ADP-induced platelet aggregation” value is “potent inhibition”.
